Measured values: patent publication US6864256B2, “Methods for the control of insect pests” (Tria Specialty Products, LLC, priority 2002, dated 2005)
Where “and” joins values, the source holds several entries; their conditions need not be identical. Equal entries are not always repeated. Where two headings read alike, the source gives them in different places. Marks after values point to notes of the source that are not given here.

How the values were obtained:
dung-breeding flies = conditions: cattle, cited from earlier work
house fly = conditions: feed-through to fattening porkers, traditional pens with straw bedding; cited from earlier work
house flies = conditions: added to the feed of mink; cited from earlier work
[1] = Tolerability of daily oral cyromazine in horses; assay type: in vivo, horse; conditions: 600 mg daily oral by top-dressing feed
Protocol: (§1) Cyromazine (2-cycloproplyamino-4,6-diamino-s-triazine) was obtained as a purified chemical composition at greater than 98% cyromazine (technical cyromazine). 600 mg of cyromazine was orally administered to each horse daily by top-dressing horse feed, for a continuous daily administration during fly season. In this example, horses residing in North Carolina, U.S. were treated during the local fly season, lasting approximately March through October of the calendar year.
(§2) In one study, cyromazine administration was stopped, and 5 manure samples were obtained from the same horse at 24, 48, 72, 96 and 120 hours post-dosing to monitor the duration of cyromazine at an insecticidal amount in the feces. In another study, single manure samples were collected from each individual horse (n=4) <24 hours after dosing with cyromazine, i.e., before another daily dose was given. Untreated control horse manure was collected from a nearby horse ranch. Samples were shipped and kept in the refrigerator until the house fly bioassay was set-up.

[2] = in vivo; cited from earlier work
[3] = test system: Musca domestica (Hilmer Strain) eggs; experiment: House fly bioassay: larval hatch from 50 eggs; assay type: in vivo; conditions: for Larval Hatch/50 Eggs, Rep 1-4: scored after 2 days
Protocol: as §1, §2
Approximately fifty (50) Musca domestica (Hilmer Strain) eggs <24 hours old were counted and placed on filter paper discs in each of four replicates (rep) per cyromazine treatment group or control. Each replicate was covered with a paper towel and placed in the environmental chamber at 80° F. (27° C.), 80% relative humidity and a 14:10 (light:dark) photoperiod. The eggs were scored for larval hatch after two days and a layer of wood shavings added as a moisture barrier and a dry substrate for pupation.
(§3) The percent larval hatch, adult fly emergence and corrected percent effect were calculated and recorded. The percentage of eggs hatching is calculated as the mean number of eggs hatched after 2 days per test divided by 50 (the total eggs input), and multiplied by 100. The percentage of adult fly emergence from larvae hatched (% larvae emerging as flies) is calculated as the mean number of adult flies emerging after 3 weeks per test divided by the mean number of larvae hatching on test day 2, and multiplied by 100. The percentage of larvae not developing is calculated as the mean number of larvae not developing per test divided by the mean number of larvae hatching on test day 2, and multiplied by 100. Thus, the data in Table 2 refers back to the data in Table 1, and the data in Table 4 refers back to the data in Table 3.

immature stages of flies = conditions: dairy calves, outdoor hutches, dose per body weight; cited from earlier work
[4] = test system: Musca domestica (Hilmer Strain) larvae; experiment: House fly bioassay: adult fly emergence from larvae exposed to feces of cyromazine-treated horses; assay type: in vivo; conditions: for Adult Fly Emergence from Larvae Hatched, Rep 1-4: 600 mg/day oral, after 3 weeks
Protocol: as §1, §2
The replicates containing hatched larvae were then returned to the environmental chamber in the presence of the test feces samples to determine the insecticidal effect of the cyromazine in the feces. Adult house fly emergence from larvae was determined after 3 weeks.
as §3

[5] = horse Barney, <24 hours post-dosing group
[6] = horse Fancy, <24 hours post-dosing group
[7] = horse Phalete, <24 hours post-dosing group
[8] = horse Precious, <24 hours post-dosing group
[9] = same horse, 600 mg/day oral, 24 hours post-dosing group
[10] = same horse, 600 mg/day oral, 48 hours post-dosing group
[11] = same horse, 600 mg/day oral, 72 hours post-dosing group
[12] = same horse, 600 mg/day oral, 96 hours post-dosing group
[13] = same horse, 600 mg/day oral, 120 hours post-dosing group
[14] = 120 hour sample (4 reps), first study
[15] = feces of horse Barney, <24 hours post-dosing
[16] = feces of horse Fancy, <24 hours post-dosing
[17] = feces of horse Phalete, <24 hours post-dosing
[18] = feces of horse Precious, <24 hours post-dosing
[19] = horse feces 24 hours post-dosing
[20] = horse feces 48 hours post-dosing
[21] = horse feces 72 hours post-dosing
[22] = horse feces 96 hours post-dosing
[23] = horse feces 120 hours post-dosing

For `COC(C)(C)CCC[C@H](C)C/C=C/C(C)=C/C(=O)OC(C)C` (racemic) [methoprene], the “inhibition of development in manure” value (dung-breeding flies; drinking water) is given as “Complete inhibition of development in manure” and the “inhibition of development in manure” value (dung-breeding flies; mineral blocks) is given as “Complete inhibition of development in manure”.

In the case of `Nc1nc(N)nc(NC2CC2)n1` [cyromazine, 2-cyclopropylamino-4,6-diamino-s-triazine], the adult fly development (house fly) is listed as “some adult flies did develop”, the “prevention of breeding of house flies” value (house flies) is listed as “ineffective” and the “tolerability, side effects” value [1] is listed as “well tolerated at this dosage, and no side effects were seen”. The “share of all cyromazine excreted found in urine” value [2] was 95%, the “Larval Hatch/50 Eggs, Rep 1-4” value ([3]; horse Barney, 600 mg/day oral, <24 hours post-dosing group) was 25 and 33 and 43 and 32 and the “% Eggs Hatching” value [3, 5] was 66.5%. The “Larval Hatch/50 Eggs, Mean” value [3, 5] was 33.25, the “Larval Hatch/50 Eggs, Σ” value [3, 5] was 133 and the “Larval Hatch/50 Eggs, Rep 1-4” value ([3]; horse Fancy, 600 mg/day oral, <24 hours post-dosing group) was 47 and 33 and 32 and 35. The “% Eggs Hatching” value [3, 6] was 73.5%, the “Larval Hatch/50 Eggs, Mean” value [3, 6] was 36.75 and the “Larval Hatch/50 Eggs, Σ” value [3, 6] was 147. The “% Eggs Hatching” value [3, 7] was 83.5%, the “Larval Hatch/50 Eggs, Mean” value [3, 7] was 41.75 and the “Larval Hatch/50 Eggs, Σ” value ([3]; horse Phalete, <24 hours post-dosing group, sum decreased by 7 (footnote)) was 167*. For the same compound, the “Larval Hatch/50 Eggs, Rep 1-4” value ([3]; horse Precious, 600 mg/day oral, <24 hours post-dosing group) was 49 and 37 and 44, the “% Eggs Hatching” value [3, 8] was 89.5% and the “Larval Hatch/50 Eggs, Mean” value [3, 8] was 44.75. The “Larval Hatch/50 Eggs, Σ” value [3, 8] was 179, the “% Eggs Hatching” value [3, 9] was 82.5% and the “Larval Hatch/50 Eggs, Mean” value [3, 9] was 41.25. For the same compound, the “Larval Hatch/50 Eggs, Σ” value [3, 9] was 165, the “Larval Hatch/50 Eggs, Rep 1-4” value [3, 9] was 40 and 35 and 42 and 48 and the “% Eggs Hatching” value [3, 10] was 57.5%. The “Larval Hatch/50 Eggs, Mean” value [3, 10] was 28.75, the “Larval Hatch/50 Eggs, Σ” value [3, 10] was 115 and the “Larval Hatch/50 Eggs, Rep 1-4” value [3, 10] was 31 and 21 and 30 and 33. The “% Eggs Hatching” value [3, 11] was 50.5%, the “Larval Hatch/50 Eggs, Mean” value [3, 11] was 25.25 and the “Larval Hatch/50 Eggs, Σ” value [3, 11] was 101. The “Larval Hatch/50 Eggs, Rep 1-4” value [3, 11] was 27 and 35 and 18 and 21, the “% Eggs Hatching” value [3, 12] was 75.0% and the “Larval Hatch/50 Eggs, Mean” value [3, 12] was 37.50. The “Larval Hatch/50 Eggs, Σ” value [3, 12] was 150, the “Larval Hatch/50 Eggs, Rep 1-4” value [3, 12] was 40 and 38 and 34 and the “% Eggs Hatching” value [3, 13] was 61.0%. For the same compound, the “Larval Hatch/50 Eggs, Mean” value [3, 13] was 30.50, the “Larval Hatch/50 Eggs, Σ” value [3, 13] was 122 and the “Larval Hatch/50 Eggs, Rep 1-4” value [3, 13] was 38 and 25 and 31 and 28. The “doses preventing development of immature stages of flies in straw bedding” value (immature stages of flies) was 0.5 to 1.0 mg/kg, the flies emerged [4, 14] was 1 and the “flies emerged, percent” value [4, 14] was 0.2%. For the same compound, the “insecticidal amount in the feces” value ([4]; feces obtained at 24, 48, 72, 96 and 120 hours post-dosing) was “An insecticidal amount of cyromazine was present in the feces”, the “Adult Fly Emergence from Larvae Hatched, Rep 1-4” value (“Adult Fly Emergence … Rep 1-4” below) [4, 15] was 0 and the “# Larvae not Developing” value [4, 15] was 133. The “% Larvae Emerging as Flies” value [4, 15] was 0%, the “% Larvae not Developing” value [4, 15] was 100.0% and the “Adult Fly Emergence from Larvae Hatched, Σ” value (shortened to “Adult Fly Emergence … Σ”) [4, 15] was 0. For the same compound, the “Adult Fly Emergence … Rep 1-4” value [4, 16] was 0, the “# Larvae not Developing” value [4, 16] was 147 and the “% Larvae Emerging as Flies” value [4, 16] was 0%. For the same compound, the “% Larvae not Developing” value [4, 16] was 100.0%, the “Adult Fly Emergence … Σ” value [4, 16] was 0 and the “Adult Fly Emergence … Rep 1-4” value [4, 17] was 0. For the same compound, the “# Larvae not Developing” value [4, 17] was 167, the “% Larvae Emerging as Flies” value [4, 17] was 0% and the “% Larvae not Developing” value [4, 17] was 100.0%. The “Adult Fly Emergence … Σ” value [4, 17] was 0, the “Adult Fly Emergence … Rep 1-4” value [4, 18] was 0 and the “# Larvae not Developing” value [4, 18] was 179. The “% Larvae Emerging as Flies” value [4, 18] was 0%, the “% Larvae not Developing” value [4, 18] was 100.0% and the “Adult Fly Emergence … Σ” value [4, 18] was 0. For the same compound, the “adult fly emergence from hatched larvae” value ([4]; first study, same horse sampled at 5 time points) was “completely inhibited adult fly emergence”, the “# Larvae not Developing” value [4, 19] was 165 and the “% Larvae Emerging as Flies” value [4, 19] was 0%. For the same compound, the “% Larvae not Developing” value [4, 19] was 100.0%, the “Adult Fly Emergence … Σ” value [4, 19] was 0 and the “Adult Fly Emergence … Rep 1-4” value [4, 19] was 0. For the same compound, the “# Larvae not Developing” value [4, 20] was 115, the “% Larvae Emerging as Flies” value [4, 20] was 0% and the “% Larvae not Developing” value [4, 20] was 100.0%. The “Adult Fly Emergence … Σ” value [4, 20] was 0, the “Adult Fly Emergence … Rep 1-4” value [4, 20] was 0 and the “# Larvae not Developing” value [4, 21] was 101. For the same compound, the “% Larvae Emerging as Flies” value [4, 21] was 0%, the “% Larvae not Developing” value [4, 21] was 100.0% and the “Adult Fly Emergence … Σ” value [4, 21] was 0. The “Adult Fly Emergence … Rep 1-4” value [4, 21] was 0, the “# Larvae not Developing” value [4, 22] was 150 and the “% Larvae Emerging as Flies” value [4, 22] was 0%. For the same compound, the “% Larvae not Developing” value [4, 22] was 100.0%, the “Adult Fly Emergence … Σ” value [4, 22] was 0 and the “Adult Fly Emergence … Rep 1-4” value [4, 22] was 0. For the same compound, the “# Larvae not Developing” value [4, 23] was 121, the “% Larvae Emerging as Flies” value [4, 23] was 0.8% and the “% Larvae not Developing” value [4, 23] was 99.8%. The “Adult Fly Emergence … Σ” value [4, 23] was 1, the “insecticidal activity of manure samples” value ([4]; horses orally administered cyromazine, feces without urine) was “high degree of insecticidal activity” and the “inhibition of house fly development” value ([4]; second study, all 4 horses, <24 hours post-dosing) was 100%.
